The nature of the data set: Human HepG2 cell viability assay in 384 well format. As to conditions: HepG2 cells, read-out: Inhibition. On the set-up: dose 125 nL, time 70.5 hour; concentration not given beside the values. It is filed as toxicity, cell-based.
As for `CN(CC(N)=O)Cc1cc(Cl)cc2cccnc12`, the cytotoxicity at 70.5 h is -8.6%.

Consider `CN(Cc1nc2ccccc2[nH]1)C(=O)C(C)(C)n1cc(Cl)cn1`, for which the cytotoxicity at 70.5 h is -12.7%.

For `CC(O)CN1CCC(CNCc2cn(-c3ccccc3)nn2)CC1` (stereo not given), the cytotoxicity at 70.5 h is -9.21%.

Regarding `CC(C)(C(=O)NCCCc1nc2ccccc2[nH]1)n1cc(Cl)cn1`, the cytotoxicity at 70.5 h is -5.61%.

`CS(=O)(=O)NCCNC(=O)c1ccc(OCc2ccccc2)nc1`: the cytotoxicity at 70.5 h was -9.1%.

Consider `CCC(C)(C)NC(=O)c1ccc(NC(=O)NCc2cc(C)no2)cc1`, for which the cytotoxicity at 70.5 h is -0.597%.

As for `Cn1ncc2c(=O)[nH]c(N3CCCC3c3cccs3)nc21` (stereo not given), the cytotoxicity at 70.5 h was 17.2%.

Regarding `c1ccc(-c2nc(SCc3nnc(C4CC4)o3)n[nH]2)nc1`, the cytotoxicity at 70.5 h was -4.88%.

Take `CCc1noc(CSc2n[nH]c(-c3ccccn3)n2)n1`: the cytotoxicity at 70.5 h is -3.21%.

On to `N#CC1COCCN1S(=O)(=O)c1ccc2c(c1)CCC2` (stereo not given), for which the cytotoxicity at 70.5 h is -8.31%.

As to `CN(C)CCn1cc(NC(=O)NC(C)(C)c2nccs2)cn1`, the cytotoxicity at 70.5 h was -3.3%.

In the case of `CCc1nc(CC)n(CC(=O)N(C)CC(F)(F)F)n1`, the cytotoxicity at 70.5 h is -4.55%.

Take `CC(NC(=O)NCC(C)(C)O)c1ccc(-c2cncnc2)cc1` (stereo not given): the cytotoxicity at 70.5 h worked out at 19.1%.

On to `CC(NC(=O)NCC(C)(C)O)c1ccc(-c2ccncc2)cc1` (stereo not given), for which the cytotoxicity at 70.5 h was -1.45%.

Regarding `CC(C)Sc1ccc(N2CCN(Cc3ccccn3)CC2)nn1`, the cytotoxicity at 70.5 h was -12.7%.

`COc1ncnc(N(C)C)c1NC(=O)c1cscc1C`: the cytotoxicity at 70.5 h was -9.9%.

On to `CC(C)CCN(c1cn[nH]c1)S(=O)(=O)c1cccc(C#N)c1`, for which the cytotoxicity at 70.5 h amounted to 18.2%.

`Cc1ccc(C(C)NCCc2nccn2Cc2ccccc2)o1` (stereo not given): the cytotoxicity at 70.5 h was -10.1%.

In the case of `Cc1nc(CN(C)C2CCN(CC(=O)N(C)CCC#N)C2)no1` (stereo not given), the cytotoxicity at 70.5 h is 0.0577%.

On to `O=C1CCCN1CCN1CCCCC1Cn1cncn1` (stereo not given), for which the cytotoxicity at 70.5 h was 17.7%.

`CCc1c(NCc2ccc(F)cc2)cnn1CC(C)C`: the cytotoxicity at 70.5 h is -6.17%.

For the compound `COc1ccc(-c2nnc(C(C)N3CCOCC3)o2)cc1` (stereo not given), the cytotoxicity at 70.5 h was -2.92%.

With `N#Cc1ccnc(N2CCN(C3CCOC3=O)CC2)c1` (stereo not given), the cytotoxicity at 70.5 h was 14.2%.

Take `CCOc1ccc(Cl)c(C(=O)NC(Cc2ccccc2)C(N)=O)n1` (stereo not given): the cytotoxicity at 70.5 h is -1.23%.

As to `COc1ccc(-c2nnc(C(C)N3CCOC(C)(C)C3)o2)cc1` (stereo not given), the cytotoxicity at 70.5 h was -5.79%.

As to `CCc1ccsc1C(=O)NC(Cc1ccccc1)C(N)=O` (stereo not given), the cytotoxicity at 70.5 h is -6.72%.

Turning to `Cc1cc(S(C)(=O)=O)c(C)c(S(=O)(=O)NCC2CCC2)c1`, the cytotoxicity at 70.5 h is -9.88%.

For the compound `Cc1cc(NC(=O)N2CCN(C)CC2C)n(Cc2ccccc2)n1` (stereo not given), the cytotoxicity at 70.5 h was -9.75%.

As for `COc1ccccc1NCC(=O)NCc1scnc1C`, the cytotoxicity at 70.5 h came to 13.6%.

Consider `Cc1cc(NC(=O)N(C)CCN2CCN(c3ccccc3)CC2)on1`, for which the cytotoxicity at 70.5 h is -2.89%.

Take `Cc1cc(NC(=O)NC(C)CN2CCN(c3ccccc3)CC2)on1` (stereo not given): the cytotoxicity at 70.5 h is -5.02%.

Take `COCC1CN(c2ccc(Cl)cc2C#N)CCO1` (stereo not given): the cytotoxicity at 70.5 h is -7.05%.

With `NC(=O)c1ccc(N2CCN(Cc3ccc(F)cc3Cl)CC2)nn1`, the cytotoxicity at 70.5 h was -9.22%.

Consider `COC(=O)c1cccc(CNC(=O)CCC(F)(F)F)c1`, for which the cytotoxicity at 70.5 h is -3.83%.

As to `COc1cc(CNCCC(N)=O)c2c(c1)CC(C)O2` (stereo not given), the cytotoxicity at 70.5 h was -0.966%.

`N#Cc1cccn(CCOc2ccc(Cl)cc2)c1=O`: the cytotoxicity at 70.5 h is -1.43%.

As for `COCC1CN(c2ccc(C#N)c(Cl)c2)CCO1` (stereo not given), the cytotoxicity at 70.5 h came out at 21.2%.

For `COc1cc(CNCCn2cc(C)cn2)c2c(c1)CC(C)O2` (stereo not given), the cytotoxicity at 70.5 h is -8.44%.

With `COc1cc(CNCCn2cccn2)c2c(c1)CC(C)O2` (stereo not given), the cytotoxicity at 70.5 h was 7.89%.

In the case of `CC(C)c1csc(C(=O)N(C)c2ccc(Br)cn2)n1`, the cytotoxicity at 70.5 h is -3.47%.

Regarding `CC1COC2(CCN(C(=O)c3ncoc3C(C)C)CC2)O1` (stereo not given), the cytotoxicity at 70.5 h was 11.1%.

Consider `Cc1nn(C)c(N2CCOCC2)c1CNCC1CCS(=O)(=O)C1` (stereo not given), for which the cytotoxicity at 70.5 h is -10.2%.

As for `O=C(NCCNc1ncccn1)NCc1cccc(OC(F)F)c1`, the cytotoxicity at 70.5 h was found to be 18.9%.

`CN(C)c1ncccc1CNC(=O)NCc1ccco1`: the cytotoxicity at 70.5 h was found to be 0.432%.

For the compound `CNC(=O)Cc1ccccc1NC(=O)NCc1ccc(SC)cc1`, the cytotoxicity at 70.5 h amounted to 19.8%.

Turning to `CC(C)Cc1cc(NC(=O)c2ccc3[nH]nnc3c2)n(C)n1`, the cytotoxicity at 70.5 h worked out at 14.7%.

For `Cc1cc(N(C)C)nc(N2CC(n3cccn3)C2)n1`, the cytotoxicity at 70.5 h is 5.13%.

On to `O=C(NCC(O)COc1ccc(F)cc1)C1(c2ccc(F)cc2)CC1` (stereo not given), for which the cytotoxicity at 70.5 h was -8.65%.

`Cn1nc(CC(C)(C)C)cc1NC(=O)c1ccc(CNC(N)=O)cc1`: the cytotoxicity at 70.5 h was -7.81%.

As to `CC(=O)Nc1cc(C(=O)Nc2cc(CC(C)(C)C)nn2C)ccc1F`, the cytotoxicity at 70.5 h was found to be 14.4%.

For `COc1cc2nc(NCc3ccc(C)nc3)nc(N)c2cc1OC`, the cytotoxicity at 70.5 h was -5.25%.

For `CCCOc1cccc(NC(=O)NC2CCc3nc(C)nn3C2)c1` (stereo not given), the cytotoxicity at 70.5 h is -5.39%.

`CCc1cccc(NC(=O)NC2CCc3nc(C)nn3C2)c1` (stereo not given): the cytotoxicity at 70.5 h came out at 13.8%.

`O=C(NCC(F)(F)F)C1CCCN(Cc2ccno2)C1` (stereo not given): the cytotoxicity at 70.5 h is -3.85%.

With `OCCOc1ccc(NCc2cccc3cccnc23)cn1`, the cytotoxicity at 70.5 h is 17.1%.

Consider `Cc1ncccc1CNc1ccc(OCCO)nc1`, for which the cytotoxicity at 70.5 h was -6.19%.

Turning to `CC(C)NC(=O)NCc1ccnc(N(C)C)n1`, the cytotoxicity at 70.5 h is -6.75%.

`CN(C)c1nccc(CNC(=O)NC(C)(C)C)n1`: the cytotoxicity at 70.5 h was -0.141%.

Take `CN(C)c1nccc(CNC(=O)NCc2ccco2)n1`: the cytotoxicity at 70.5 h is -8.38%.

`CCc1cnc(CN(C)C(=O)NC2CCN(c3ccccc3)C2)s1` (stereo not given): the cytotoxicity at 70.5 h was -0.551%.

With `CCc1cnc(CN(C)C(=O)NC2CCN(CC3CC3)C2)s1` (stereo not given), the cytotoxicity at 70.5 h turned out to be 25.5%.

`c1cc(-c2noc(C3CCC3)n2)cc(N2CCCCC2)n1`: the cytotoxicity at 70.5 h is 16.5%.

With `COC(=O)C1CN(Cc2ccccc2C(C)(C)C#N)CCO1` (stereo not given), the cytotoxicity at 70.5 h was -5.04%.

In the case of `OCCOc1ccc(NCc2cccc3cn[nH]c23)cn1`, the cytotoxicity at 70.5 h was 0.12%.

For `Cc1cnc(CN2CCN(C(C)c3nc(C4CC4)no3)CC2)cn1` (stereo not given), the cytotoxicity at 70.5 h is -6.13%.

For `CC1CCCCN1C(=O)c1ccc2c(c1)OCCCO2` (stereo not given), the cytotoxicity at 70.5 h is 10.5%.

As to `O=C(NCc1ccccc1CN1CCCC1=O)Nc1nncs1`, the cytotoxicity at 70.5 h was -7.24%.

In the case of `O=S(=O)(CCCc1ccccc1)Cc1nnnn1C1CC1`, the cytotoxicity at 70.5 h is -8.42%.

In the case of `O=C(NCc1ccccc1CN1CCCC1=O)Nc1nccs1`, the cytotoxicity at 70.5 h was -9.69%.

On to `CC1CCCCN1Cc1nc(Cc2ccccc2)no1` (stereo not given), for which the cytotoxicity at 70.5 h is -10.4%.

Regarding `CC(C)(C(=O)NCc1ccc(C#N)cc1)n1cc(Br)cn1`, the cytotoxicity at 70.5 h was -2.27%.

Turning to `O=C(Cn1ccc(=O)c2ccccc21)Nc1cnccc1O`, the cytotoxicity at 70.5 h worked out at 8.04%.

For `CN(C1CCN(c2ccccn2)CC1)S(=O)(=O)c1ccc(F)cc1`, the cytotoxicity at 70.5 h was -6.89%.

Turning to `Cc1n[nH]cc1CNCc1cccc(OCC(F)(F)F)c1`, the cytotoxicity at 70.5 h was -0.995%.

With `Cc1n[nH]cc1CNCc1ccnc(OCC(F)(F)F)c1`, the cytotoxicity at 70.5 h was -7.14%.

The record behind these values is ChEMBL document CHEMBL3507680, “University of Dundee, Gates Library screen for HepG2 cell viability”.
